Test results as given in paper PMC7998250, “Temperate Zone Plant Natural Products—A Novel Resource for Activity against Tropical Parasitic Diseases” (Pharmaceuticals, 2021).
Read-outs that look alike come from different tables or passages of the source.

Assays:
[1] = test system: P. falciparum Dd2Luc intraerythrocytic trophozoites; test: Initial screen, intraerythrocytic P. falciparum, Malaria SYBR-Green I fluorescence assay; assay type: cell-based, Plasmodium falciparum
Method: (§1) 634 compounds from the PhytoQuest Phytopure temperate plant natural product library were screened for growth inhibitory activity against L. mexicana axenic amastigotes, T. brucei bloodstream form, intraerythrocytic asexual P. falciparum (at 2 μM) and T. evansi bloodstream form parasites (at 1 μM). […] Our initial hits were defined as reducing growth of the parasite by ≥50%. […]
(§2) The PhytoQuest Phytopure library is a commercially available collection of purified compounds isolated predominantly from temperate zone plants, with structures confirmed by NMR and mass spectrometry. The library was provided as 634 non-polar compounds (1 mg/mL in DMSO). Initial screening was performed in a 96-well plate with 200 μL of parasite culture. The initial screen used each compound at a final concentration of 2 μM for L. mexicana axenic amastigotes, T. brucei and P. falciparum, and at 1 μM for T. evansi. L. mexicana axenic amastigotes were plated at 1 × 10^6 cells/mL, incubated for 72 h, and the Alamar Blue assay was used to assess parasite growth. Each compound was tested in triplicate, with two biological replicates (n = 6). T. brucei and T. evansi were plated at 1×10^5 cells/mL for 48 h, and the Alamar Blue assay was used to assess parasite growth. Each compound was tested in triplicate with two biological replicates (n = 6). Intraerythrocytic P. falciparum in the trophozoite stage were seeded at 0.5% parasitaemia and 2% haematocrit for 48 h, and the Malaria SYBR-Green I fluorescence assay was used to assess parasite growth. Each compound was tested in duplicate with two biological replicates (n = 4). Negative controls comprised an equivalent volume of DMSO (equivalent of 1% v/v) to normalise the growth data. Data points >100% growth and <0% growth were tabulated as 100% and 0%, respectively. Some compounds were not tested in all parasite lines as there was insufficient material remaining.

[2] = test system: L. mexicana axenic amastigotes; test: Initial screen, L. mexicana axenic amastigotes, Alamar Blue; assay type: cell-based, Leishmania mexicana
Method: as §1, §2

[3] = test system: T. brucei bloodstream form; test: Initial screen, T. brucei bloodstream form, Alamar Blue; assay type: cell-based, Trypanosoma brucei brucei; conditions: for activity at 2 µM / inhibition of growth at 2 µM: Trypanosoma brucei; for activity at 2 µM: initial screen; for initial hit against T. brucei / inhibition of growth at 2 µM: 2 μM; for initial hit against T. brucei: growth reduced by ≥50%; for inhibition of growth at 2 µM: x = initial hit, read-out: initial hit T.b
Method: (§3) 634 compounds from the PhytoQuest Phytopure temperate plant natural product library were screened for growth inhibitory activity against L. mexicana axenic amastigotes, T. brucei bloodstream form, intraerythrocytic asexual P. falciparum (at 2 μM) and T. evansi bloodstream form parasites (at 1 μM). […] Our initial hits were defined as reducing growth of the parasite by ≥50%.
(§4) L. mexicana strain MNYC/BZ/62/M379 and L. donovani strain LdBOB (a clonal line from strain MHOM/SD/62/1S-CL2) were maintained in vitro in the procyclic promastigote stage. Parasites were cultivated at 26 °C in Schneider’s medium (Gibco) pH 7.0 containing 10% FBS, 100 U/mL penicillin (Lonza) and 100 μg/mL streptomycin (Lonza) as previously described. Differentiation into axenic amastigotes was performed as described previously. Briefly, axenic amastigotes were cultivated at 32 °C in Schneider’s medium pH 5.5 containing 10% FBS, 100 U/mL penicillin (Lonza) and 100 μg/mL streptomycin (Lonza). Bloodstream form T. brucei brucei strain Lister 427 and T. evansi strain Antat 3/3 [59] were maintained in vitro at 37 °C with 5% (v/v) CO2 in HMI-11 medium supplemented with 10% FBS, as described elsewhere. Intraerythrocytic cultures of P. falciparum Dd2^Luc strain [62] were maintained at 37 °C in a 1% O2:3% CO2:96% N2 atmosphere in RPMI-1640 containing 37.5 mM HEPES, 5 mM NaOH, 10 mM D-glucose, 2 mM L-glutamine, 100 μM hypoxanthine, […] gentamicin sulfate, 5% human serum and 5% albumax-II and 2% haematocrit erythrocytes. When required, cultures were synchronised to ring stages using the sorbitol lysis method. Preliminary cytotoxicity screening was assessed using HepG2 cells. These cells were maintained in vitro at 37 °C with 5% (v/v) CO2 in DMEM (Sigma) pH 7 supplemented with 10% FBS, 100 U/mL penicillin (Lonza) and 100 μg/mL streptomycin (Lonza), as previously described. The human monocyte cell line THP-1 [68] was maintained in vitro by culturing at 37 °C with 5% (v/v) CO2 in complete RPMI medium (Dutch modified RPMI-1640 (Gibco) containing 10% FBS and 2 mM L-glutamine (Gibco)). Differentiation of THP-1 cells into macrophages was performed by seeding 2.5 × 10^5 cells/mL in complete RPMI media, supplemented with 20 ng/mL phorbol 12-myristate 13-acetate (PMA), followed by incubation at 37 °C with 5% (v/v) CO2 for 24 h.
as §2, with “The” for “The PhytoQuest Phytopure library is a commercially available collection of purified compounds isolated predominantly from temperate zone plants, with structures confirmed by NMR and mass spectrometry. The”

[4] = test system: T. evansi bloodstream form; test: Initial screen, T. evansi bloodstream form, Alamar Blue; assay type: cell-based, Trypanosoma evansi; conditions: Trypanosoma evansi; for activity at 1 µM: initial screen; for inhibition of growth at 1 µM: x = initial hit, read-out: initial hit T.e
Method: as §3, §4
as §2, with “The” for “The PhytoQuest Phytopure library is a commercially available collection of purified compounds isolated predominantly from temperate zone plants, with structures confirmed by NMR and mass spectrometry. The”

[5] = in vitro; conditions: human, pH 7, HepG2 CC50
Description: Initial hits from the parasite panel screen were taken forward in log concentration versus normalised response assays to estimate the half maximal effective concentration (EC50) in hit species as well as the half maximal cytotoxic concentrations (CC50) in the human hepatoma cell line HepG2 as a preliminary test for selectivity. Using CC50/EC50 to define the selectivity index (SI), the selectivity for each compound in a defined species compared to a human cell line was estimated and compared to the EC50 (Figure 3).
as §4
EC50 values were determined by serial two-fold dilution of each compound in 96 well plates. Culture conditions and viability assays were as stated for the initial screen, with some exceptions. L. mexicana and L. donovani axenic amastigotes were seeded at 2 × 10^6 cell/s mL, T. brucei and T. evansi were seeded at 2 × 10^5 cells/mL. For cytotoxicity studies, HepG2 cells were seeded at 1 × 10^5 cells/mL, incubated for 48 h and viability was assessed using the Alamar Blue assay. Differentiated THP-1 cells were seeded at 5 × 10^4 cells/mL, incubated for 48 h, and viability was assessed by the Alamar Blue assay. Normalised growth and viability data (compared to untreated controls) were plotted against Log10 concentration to estimate EC50 in GraphPad (Prism v6). Bioluminescence relative rate of kill assays in asexual intraerythrocytic P. falciparum Dd2^Luc were carried out as described.

[6] = test system: T. brucei; test: Concentration-response EC50, T. brucei; assay type: cell-based, Trypanosoma brucei brucei; conditions: Trypanosoma brucei, 48 h, bloodstream form, 48 h; read-out: T. brucei EC50
[7] = Plasmodium falciparum, 48 h, read-out: %growth P. falciparum, mean % growth compared to a normalised control with same concentration of DMSO solvent, initial screen
[8] = Leishmania mexicana, read-out: % growth L. mexicana, mean % growth compared to a normalised control with same concentration of DMSO solvent, initial screen
[9] = mean % growth compared to a normalised control with same concentration of DMSO solvent, read-out: % growth T. b. brucei
[10] = mean % growth compared to a normalised control with same concentration of DMSO solvent, read-out: % growth T. evansi
[11] = Plasmodium falciparum, 48 h, read-out: mean % growth, P. falciparum, initial screen, compared to a normalised control with same concentration of DMSO solvent
[12] = Leishmania mexicana, read-out: mean % growth, L. mexicana, initial screen, compared to a normalised control with same concentration of DMSO solvent
[13] = compared to a normalised control with same concentration of DMSO solvent, read-out: mean % growth, T. b. brucei
[14] = compared to a normalised control with same concentration of DMSO solvent, read-out: mean % growth, T. evansi

| Compound | activity at 2 µM [1, 7] [%] | inhibition of growth at 2 µM ([1]; Plasmodium falciparum, 48 h, read-out: initial hit P.f) [%] | activity at 2 µM [2, 8] [%] | activity at 2 µM [3, 9] [%] | activity at 1 µM [4, 10] [%] | CC50 at 48 h [5] [nM] | activity against P. falciparum in screen ([1]; 2 μM) | decrease of L. mexicana survival ([2]; 2 μM, 72 h) [%] | initial hit against T. brucei [3] | inhibition of growth at 2 µM [3] [%] | EC50 [6] [nM] | inhibition of growth at 1 µM [4] [%] | activity at 2 µM [1, 11] [%] | activity at 2 µM [2, 12] [%] | activity at 2 µM [3, 13] [%] | activity at 1 µM [4, 14] [%] | initial hit against L. mexicana ([2]; 2 μM, growth inhibited by ≥80%) | inhibition of growth at 2 µM ([2]; Leishmania mexicana, 2 μM, x = initial hit, read-out: initial hit L.m) [%] |
| --- | --- | --- | --- | --- | --- | --- | --- | --- | --- | --- | --- | --- | --- | --- | --- | --- | --- | --- |
| CC(=O)OC1C(O)C(C)OC(OC2C(OC(=O)C3C[C@@H]4OC5(CC(OC(=O)/C=C/c6ccccc6)[C@@H](C)CO5)C(O)(CO)[C@@H]4CO3)OC(C)C(O)C2OC(C)=O)C1O (single isomer, unassigned) [Compound 700047] | 41.8 | > 50 | 60 | 61 | 90.2 |  |  |  |  |  |  |  |  |  |  |  |  |  |
| CC(C)c1ccc2c(c1)CCC1C(C)(C=O)CCCC21C (stereo not shown) [Compound 700014] | 107 |  | 56.9 | 25.2 | 93 | 40000 | neither 700014 or 700063 showed activity against P. falciparum | ~70 | initial hits | > 50 | 1100 |  |  |  |  |  |  |  |
| CC(C)c1ccc2c(c1)CCC1C(CCCC1C(=O)O)O2 (stereo not shown) [Compound 700110] | 105 |  | 52.4 | 87.2 | 47.9 |  |  |  |  |  |  | > 50 |  |  |  |  |  |  |
| C/C1=C\C2OC(=O)C(=O)C2CC/C(C(=O)OC2OC(CO)C(O)C(O)C2O)=C\CC1 (stereo not shown) [Compound 700458] |  |  |  |  |  |  |  |  |  |  |  | > 50 | 119 | 48.5 | 78.2 | 48.2 |  |  |
| O=C1C=CC(O)(c2cc(=O)c3c(O)cc(O)cc3o2)C=C1 [Compound 700586] |  |  |  |  |  | 3600 |  |  | initial hits | > 50 | 630 |  | 77 | 56.5 | 3.1 |  |  |  |
| COc1cc2ccc(=O)oc2c(OC)c1OCC1C(C)=CCC2C(C)(C)C(O)CCC12C (stereo not shown) [Compound 700867] |  |  |  |  |  | 27000 |  |  | initial hits | > 50 | 2600 |  | 104 | 60.7 | 19.3 | 126 |  |  |
| CC(C)C(=O)OC1C2C(CC(C)C3C=CC(=O)C31C)OC(=O)C2C (stereo not shown) [Compound 701156] |  |  |  |  |  |  |  |  | initial hits | > 50 | 990 |  | 93.7 | 52.7 | 24.3 | 113 |  |  |
| C#CC#CCc1ccccc1C(=O)OC [Compound 701248] |  |  |  |  |  |  |  |  |  |  |  |  | 100 | 19.2 | 60.9 |  | initial hits | > 80 |
